Assay results published in patent US20180221457A1 (VAL-CHUM, LIMITED PARTNERSHIP, priority 2015, published 2018).
Blank lines part the entries; values can stand above or below the molecule they belong to.

What was measured:
human G3PP (hG3PP) = target: T1, human G3PP (hG3PP) (Homo sapiens, UniProt A6NDG6); assay: Effect of organic acids on G3PP activity in hG3PP-overexpressing 293T cell extracts; assay type: biochemical; conditions: 10 mM Gro3P substrate, 2 or 10 mM test organic acid, 30 min at 30° C.
T1 construct: expressed in transfected cells; host or cells: 293T cells (whole cell extract)
T1 sequence (A6NDG6 1-321): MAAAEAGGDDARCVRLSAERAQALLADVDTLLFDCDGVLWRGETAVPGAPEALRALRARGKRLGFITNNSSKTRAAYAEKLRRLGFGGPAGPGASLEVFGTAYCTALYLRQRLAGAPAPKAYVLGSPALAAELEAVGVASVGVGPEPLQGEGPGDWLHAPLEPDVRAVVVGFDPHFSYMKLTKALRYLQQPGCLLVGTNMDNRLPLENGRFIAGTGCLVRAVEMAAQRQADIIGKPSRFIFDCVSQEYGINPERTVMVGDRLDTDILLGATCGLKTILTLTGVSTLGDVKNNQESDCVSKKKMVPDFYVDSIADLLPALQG
Procedure: In order to examine the effect of various compounds on G3PP activity, human G3PP (hG3PP) was overexpressed in 293T cells, using a plasmid vector. Simultaneously control cells received GFP (Green Fluorescent Protein) expression plasmid. After 72 h following transfection, cells were harvested and whole cell extracts were prepared in Krebs Ringer Buffer (KRBH). G3PP was assayed using […] G3PP cell extract protein (or GFP control extract) with 10 mM Gro3P substrate and 2 or 10 mM test organic acid (R-hydroxy butyric acid, glycolate, succinate, citrate, malate, fumarate, lactate and malonate). Incubations were for 30 min at 30° C. Then the reactions were stopped by adding perchloric acid and glycerol released was measured using Γ-^32P-labeled ATP plus glycerokinase. The amount of glycerol release is proportional to the activity of hG3PP in the cell extracts.

rat islets = assay: Free fatty acids and glycerol release from isolated rat islets; assay type: cell-based; conditions: 50 μM orlistat, 2 h
Procedure: Islet and hepatocyte isolation. Pancreatic islets were isolated from rats and mice (Peyot et al., 2009). Isolated islets were cultured overnight at 37° C. in complete RPMI 1640 medium. Hepatocytes were isolated from rats by in situ collagenase perfusion and were seeded in DMEM complete medium (Merlen et al., 2014).
Free fatty acids and glycerol release. For FFA determinations, isolated rat islets were pre-incubated for 1 h in KRBH containing 2 mM glutamine and at 4 mM glucose, 50 μM carnitine and then incubated for 2 h at 4, 10, 16 and 25 mM glucose. The low and high glucose concentrations were 2 and 10 mM, respectively, when INS832/13 cells were used. Incubations were done without and with the panlipase inhibitor, orlistat. Cells and islets were harvested after incubations for protein extraction. FFA released into the medium were extracted by a modified Dole-Meinertz extraction procedure (Puttmann et al., 1993). Briefly, the media (0.5 ml), in Pyrex glass tubes, were mixed with the internal standard [^2H31]-palmitic acid and extracted with 2.5 ml of a solvent mixture containing isopropanol-n-heptane-2M phosphoric acid (40:10:1, v/v). After thorough mixing by vortex, the tubes were kept in a bath sonicator (Branson Ultrasonic) and sonicated for 2 min with 30 s intervals, avoiding sample heating. After rigorous mixing by vortex, the tubes were let stand at room temperature for 10 min, and then heptane (1 ml) and water (1.5 ml) were added and the tubes were thoroughly mixed by vortex followed by sonication for 1 min. Then the tubes were centrifuged at 1000×g for 10 min at 4° C. […] The dried fatty acids were derivatized with phenacylbromide and quantified by reverse phase HPLC (Mehta et al., 1998) using a Zorbax Eclipse plus XDB analytical C18 column (4.6×250 mm; 5 μm; Agilent Technology). FFA were eluted using methanol/water (92.5:7.5, v/v) at a flow rate of 1.5 ml/min and absorbance of eluting FFA-phenacyl derivatives was measured at 242 and 254 nm. […] Glycerol release was determined by a radiometric glycerol assay (Bradley and Kaslow, 1989) using [Γ-^32P]ATP and glycerokinase. […]

INS832/13 β-cells = assay: Free fatty acids and glycerol release from INS832/13 cells; assay type: cell-based, rat; conditions: 50 μM orlistat, 2 h
Procedure: Free fatty acids and glycerol release. For FFA determinations, isolated rat islets were pre-incubated for 1 h in KRBH containing 2 mM glutamine and at 4 mM glucose, 50 μM carnitine and then incubated for 2 h at 4, 10, 16 and 25 mM glucose. The low and high glucose concentrations were 2 and 10 mM, respectively, when INS832/13 cells were used. Incubations were done without and with the panlipase inhibitor, orlistat. Cells and islets were harvested after incubations for protein extraction. FFA released into the medium were extracted by a modified Dole-Meinertz extraction procedure (Puttmann et al., 1993). Briefly, the media (0.5 ml), in Pyrex glass tubes, were mixed with the internal standard [^2H31]-palmitic acid and extracted with 2.5 ml of a solvent mixture containing isopropanol-n-heptane-2M phosphoric acid (40:10:1, v/v). […] The dried fatty acids were derivatized with phenacylbromide and quantified by reverse phase HPLC (Mehta et al., 1998) using a Zorbax Eclipse plus XDB analytical C18 column (4.6×250 mm; 5 μm; Agilent Technology). FFA were eluted using methanol/water (92.5:7.5, v/v) at a flow rate of 1.5 ml/min and absorbance of eluting FFA-phenacyl derivatives was measured at 242 and 254 nm. […] Glycerol release was determined by a radiometric glycerol assay (Bradley and Kaslow, 1989) using [Γ-^32P]ATP and glycerokinase.

[1] = substrate: O=P(O)(O)OCC(O)CO; assay: purified protein, by the assay type; conditions: other: substrate glycerol-3-phosphate; pH 7.5

- G3PP activity (glycerol released) (human G3PP (hG3PP)): do not activate similarly
Molecule: O=C(O)CC(O)C(=O)O (stereo not drawn) [malate]

- G3PP activity (glycerol released) (human G3PP (hG3PP)): do not activate similarly
Molecule: O=C(O)CC(=O)O [malonate]

- G3PP activity (glycerol released) (human G3PP (hG3PP)): marked stimulation
Molecule: O=C(O)CCC(=O)O [succinate]

- G3PP activity (glycerol released) (human G3PP (hG3PP)): do not activate similarly
Molecule: O=C(O)/C=C/C(=O)O [fumarate]

More lines, now with the values behind:

Molecule: CC(O)CC(=O)O (stereo not drawn) [beta-hydroxybutyrate]
- G3PP activity (glycerol released) (human G3PP (hG3PP)): stimulated

Molecule: CCCCCCCCCCC[C@@H](C[C@@H]1OC(=O)[C@H]1CCCCCC)OC(=O)[C@H](CC(C)C)NC=O [orlistat]
- glycerol release (rat islets; elevated glucose concentration): not inhibited
- FFA release (lipolysis) (rat islets; high glucose concentrations): reduction
- glycerol release (rat islets; medium concentration of glucose (10 mM)): moderate inhibition
- glycerol release (INS832/13 β-cells; elevated glucose concentration): not inhibited
- FFA release (lipolysis) (INS832/13 β-cells; high glucose concentrations): reduction

B1: Recombinant human PGP (Homo sapiens) (protein)
chain: T1 sequence (A6NDG6 1-321)
- Km [1]: 1500 µM
- kcat [1]: 0.1 s⁻¹
